Literature values in patent US20120237592A1, “ENDOPLASMIC RETICULUM TARGETING LIPOSOMES” (priority 2008, published 2012).

Assays:
[1] = test system: HIV; settings: literature
[2] = test system: HIV-1; settings: HIV-1 infected patients, literature
[3] = test system: HBV; settings: literature
[4] = test system: BVDV; settings: literature

CCCCN1C[C@H](O)[C@@H](O)[C@H](O)[C@H]1CO [NB-DNJ, N-butyl-1,5-dideoxy-1,5-imino-D-glucitol]
infectious virus released from HIV-infected cells [1]: greatly reduced | tolerability at concentrations necessary for antiviral activity [2]: serious side-effects | secretion of HBV particles [3]: suppresses secretion of HBV particles | infectivity of BVDV viral progeny [4]: decreased infectivity of viral progeny
